# Source: patent US9580418B2, “Bicyclic aromatic carboxamide compounds useful as Pim kinase inhibitors” (Incyte Corporation, priority 2014, dated 2017)
# Legend:
# pBAD in KMS.12.BM cells = assay: Pim pBAD signaling assay in KMS.12.BM cells (Example B); assay type: cell-based; settings: Homo sapiens, 2.5 h incubation, pBAD ELISA
# Description: KG-1A cells are purchased from ATCC (Manassas, Va.) and KMS.12.BM cells are purchased from NIBIO, JCRB cell bank (Tokyo, Japan) and maintained in the culture mediums recommended, RPMI, 10% FBS and IMDM 20% FBS (Mediatech, Manassas, Va.) respectively. To measure the pBAD inhibitory activity of the compounds, both cell lines are plated with the culture medium (1×10^6/well/100 μL for KG1A and 4×10^5 cells/well/in 100 μL for KMS12BM) into 96-well V bottom polypropylene plates (Matrix, Thermo Fisher, USA) and incubated 30 min. at 37° C. to normalize cell signaling from handling. Test compounds are added at an appropriate concentration range and further incubated for 2.5 h for KMS.12.BM cells and 4 h for KG1-A cells. Plates are centrifuged at 2000 RPM for 10 min. and supernatants aspirated. 100 μL lysis buffer with protease inhibitors (Cell Signaling Technologies, Danver, Mass., Sigma, St Louis Mo., EMD, USA) is added to the pellets, mixed well and set on ice for 30 min. Lysates are frozen overnight at −80° C. To measure the pBAD activity, a Cell Signaling ELISA kit (Cell Signaling Path Scan phosphor pBAD ELISA) is utilized. 50 μL of the lysate is tested per the ELISA protocol and the data analysis is performed by software on a SpectrMax5 plate reader (Molecular Devices, Sunnyvale, Calif.). IC50 determination is performed by fitting the curve of percent inhibition versus the log of the inhibitor concentration using the GraphPad Prism 5.0 software.
# Pim-2 = Pim-2 (Homo sapiens (Human), UniProt Q9P1W9); assay: Pim-2 kinase assay (Pim enzyme assays, Example A); assay type: biochemical; settings: 1 mM ATP, CREBtide peptide substrate; read-out: PIM2 IC50
# Chain of Pim-2 (Q9P1W9 whole entry): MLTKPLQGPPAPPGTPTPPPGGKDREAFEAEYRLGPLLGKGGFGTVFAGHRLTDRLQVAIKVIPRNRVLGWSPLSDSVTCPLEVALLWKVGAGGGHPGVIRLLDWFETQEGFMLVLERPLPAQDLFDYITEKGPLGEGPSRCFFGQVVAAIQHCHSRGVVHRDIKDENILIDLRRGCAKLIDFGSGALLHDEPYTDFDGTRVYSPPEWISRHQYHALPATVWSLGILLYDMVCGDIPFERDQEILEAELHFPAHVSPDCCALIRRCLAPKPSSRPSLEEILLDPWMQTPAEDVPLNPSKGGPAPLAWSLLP
# Description: Pim-2 kinase assay-20 μL reactions were run in white 384 well polystyrene plates dotted with 0.8 μL compound/DMSO in the assay buffer (50 mM Tris, pH 7.5, 0.01% Tween-20, 5 mM mgCl2, 0.01% BSA, 5 mM DTT), containing 0.05 μM Fluorescein-labeled CREBtide peptide substrate (Invitrogen PV3508), 1 mM ATP, and 1 nM enzyme (Invitrogen PV3649) for 2 h at 25° C. Reactions were stopped by addition of 10 μL TR-FRET Dilution Buffer (Invitrogen PV3574) with 30 mM EDTA and 1.5 nM LanthaScreen Tb-CREB pSer133 antibody (Invitrogen PV3566). After 30 min. incubation at room temperature, plates were read on a PHERAstar FS plate reader (BMG Labtech).
# Pim-3 = Pim-3 (Homo sapiens (Human), UniProt Q86V86); assay: Pim-3 kinase assay (Pim enzyme assays, Example A); assay type: biochemical; settings: 1 mM ATP, BAD peptide substrate; read-out: PIM3 IC50
# Description: (§1) Pim-1 and Pim-3 kinase assays-20 μL reactions were run in white 384 well polystyrene plates dotted with 0.8 μL compound/DMSO in the assay buffer (50 mM Tris, pH 7.5, 0.01% Tween-20, 5 mM mgCl2, 0.01% BSA, 5 mM DTT), containing 0.05 μM Biotin-labeled BAD peptide substrate (AnaSpec 62269), 1 mM ATP, and 2.5 pM (Pim-1, Invitrogen PV3503) or 1.25 pM (Pim-3, Millipore 14-738) enzyme for 1 h at 25° C. Reactions were stopped by addition of 10 μL STOP Buffer (150 mM Tris, pH=7.5, 150 mM NaCl, 75 mM EDTA, 0.01% Tween-20, 0.3% BSA,) supplemented with Phospho-Bad (Ser112) Antibody (Cell Signaling 9291) diluted 666-fold, and Streptavidin donor beads (PerkinElmer 6760002) along with Protein-A acceptor beads (PerkinElmer 6760137) at 15 μg/mL each. Supplementation of the STOP buffer with beads and stopping the reactions were done under reduced light. Prior to the stopping reactions STOP buffer with beads was preincubated for 1 h in the dark at room temperature. After stopping the reactions, plates were incubated for 1 h in the dark at room temperature before reading on a PHERAstar FS plate reader (BMG Labtech) under reduced light.
# Pim-1 = Pim-1 (Homo sapiens (Human), UniProt P11309); assay: Pim-1 kinase assay (Pim enzyme assays, Example A); assay type: biochemical; settings: 1 mM ATP, BAD peptide substrate; read-out: PIM1 IC50
# Chain of Pim-1 (P11309 whole entry): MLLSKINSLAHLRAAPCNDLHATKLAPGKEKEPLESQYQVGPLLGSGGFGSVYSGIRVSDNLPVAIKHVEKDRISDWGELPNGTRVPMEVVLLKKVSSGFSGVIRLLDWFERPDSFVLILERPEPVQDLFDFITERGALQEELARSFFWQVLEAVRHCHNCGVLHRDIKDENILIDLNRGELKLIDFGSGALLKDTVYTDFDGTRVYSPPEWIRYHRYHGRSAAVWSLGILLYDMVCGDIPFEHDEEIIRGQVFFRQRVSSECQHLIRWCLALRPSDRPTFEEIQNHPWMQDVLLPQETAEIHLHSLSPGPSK
# Description: as §1
SMILES,IC50 (pBAD in KMS.12.BM cells),IC50 (Pim-2),IC50 (Pim-3),IC50 (Pim-1)
"CCc1ccc2ccc(C(=O)Nc3cnccc3N3C[C@@H](N)[C@H](O)[C@@H](C)C3)nc2c1 [Example 9, N-{4-[(3R,4R,5S)-3-Amino-4-hydroxy-5-methylpiperidin-1-yl]pyridin-3-yl}-7-ethylquinoline-2-carboxamide]",≤ 50 nM,100 to 1000 nM,≤ 10 nM,≤ 10 nM
"C[C@@H]1C[C@H](N)CN(c2ccncc2NC(=O)c2ccc3ccc(N4CCOCC4)cc3n2)C1 [Example 13, N-{4-[(3S,5R)-3-Amino-5-methylpiperidin-1-yl]pyridin-3-yl}-7-morpholin-4-ylquinoline-2-carboxamide]",≤ 50 nM,≤ 100 nM,≤ 10 nM,≤ 10 nM
"COC1CCN(c2ccc3ccc(C(=O)Nc4cnccc4N4C[C@H](C)C[C@H](N)C4)nc3c2)CC1 [Example 25, N-{4-[(3S,5R)-3-Amino-5-methylpiperidin-1-yl]pyridin-3-yl}-7-(4-methoxypiperidin-1-yl)quinoline-2-carboxamide]",≤ 50 nM,≤ 100 nM,≤ 10 nM,≤ 10 nM
"CCn1cc(-c2ccc3ccc(C(=O)Nc4cnccc4N4C[C@@H](N)[C@H](O)[C@@H](C)C4)nc3c2)cn1 [Example 44, N-{4-[(3R,4R,5S)-3-Amino-4-hydroxy-5-methylpiperidin-1-yl]pyridin-3-yl}-7-(1-ethyl-1H-pyrazol-4-yl)quinoline-2-carboxamide]",≤ 50 nM,≤ 100 nM,≤ 10 nM,≤ 10 nM
"COc1ccc(-c2cnc3ccc(C(=O)Nc4cnccc4N4C[C@@H](N)[C@H](O)[C@@H](C5CC5)C4)nc3c2)cn1 [Example 36, N-{4-[(3R,4R,5S)-3-Amino-5-cyclopropyl-4-hydroxypiperidin-1-yl]pyridin-3-yl}-7-(6-methoxypyridin-3-yl)-1,5-naphthyridine-2-carboxamide]",≤ 50 nM,≤ 100 nM,≤ 10 nM,≤ 10 nM
"COc1ccc(-c2cnc3ccc(C(=O)Nc4cnccc4N4C[C@@H](N)[C@H](O)[C@@H](C)C4)nc3c2)cn1 [Example 7, N-{4-[(3R,4R,5S)-3-Amino-4-hydroxy-5-methylpiperidin-1-yl]pyridin-3-yl}-7-(6-methoxypyridin-3-yl)-1,5-naphthyridine-2-carboxamide]",≤ 50 nM,≤ 100 nM,≤ 10 nM,≤ 10 nM
"C[C@@H]1C[C@H](N)CN(c2ccncc2NC(=O)c2ccc3ncc(-c4c(F)cccc4F)cc3n2)C1 [Example 1, N-{4-[(3S,5R)-3-Amino-5-methylpiperidin-1-yl]pyridin-3-yl}-7-(2,6-difluorophenyl)-1,5-naphthyridine-2-carboxamide]",≤ 50 nM,≤ 100 nM,≤ 10 nM,≤ 10 nM
"C[C@H]1CN(c2ccncc2NC(=O)c2ccc3ccc(-c4cnn(C)c4)cc3n2)C[C@@H](N)[C@@H]1O [Example 43, N-{4-[(3R,4R,5S)-3-Amino-4-hydroxy-5-methylpiperidin-1-yl]pyridin-3-yl}-7-(1-methyl-1H-pyrazol-4-yl)quinoline-2-carboxamide]",≤ 50 nM,≤ 100 nM,≤ 10 nM,≤ 10 nM
"CC(C)c1cnc2ccc(C(=O)Nc3cnccc3N3C[C@H](C)C[C@H](N)C3)nc2c1 [Example 2, N-{4-[(3S,5R)-3-Amino-5-methylpiperidin-1-yl]pyridin-3-yl}-7-isopropyl-1,5-naphthyridine-2-carboxamide]",≤ 50 nM,≤ 100 nM,≤ 10 nM,≤ 10 nM
"C[C@H]1CN(c2ccncc2NC(=O)c2ccc3ccc(N4CCC(c5ccncc5)CC4)cc3n2)C[C@@H](N)[C@@H]1O [Example 20, N-{4-[(3R,4R,5S)-3-Amino-4-hydroxy-5-methylpiperidin-1-yl]pyridin-3-yl}-7-(4-pyridin-4-ylpiperidin-1-yl)quinoline-2-carboxamide]",50 to 250 nM,≤ 100 nM,≤ 10 nM,≤ 10 nM
"N#CC1CCN(c2cnc3ccc(C(=O)Nc4cnccc4N4C[C@@H](N)[C@H](O)[C@@H](C5CC5)C4)nc3c2)CC1 [Example 41, N-{4-[(3R,4R,5S)-3-Amino-5-cyclopropyl-4-hydroxypiperidin-1-yl]pyridin-3-yl}-7-(4-cyanopiperidin-1-yl)-1,5-naphthyridine-2-carboxamide]",50 to 250 nM,1000 to 10000 nM,10 to 50 nM,10 to 50 nM
"COc1cc(F)c(-c2cnc3ccc(C(=O)Nc4cnccc4N4C[C@@H](N)[C@H](O)[C@@H](C5CC5)C4)nc3c2)c(F)c1 [Example 35, N-{4-[(3R,4R,5S)-3-Amino-5-cyclopropyl-4-hydroxypiperidin-1-yl]pyridin-3-yl}-7-(2,6-difluoro-4-methoxyphenyl)-1,5-naphthyridine-2-carboxamide]",≤ 50 nM,≤ 100 nM,≤ 10 nM,≤ 10 nM
"COc1ccc(-c2ccc3ccc(C(=O)Nc4cnccc4N4C[C@@H](N)[C@H](O)[C@@H](C)C4)nc3c2)cn1 [Example 45, N-{4-[(3R,4R,5S)-3-Amino-4-hydroxy-5-methylpiperidin-1-yl]pyridin-3-yl}-7-(6-methoxypyridin-3-yl)quinoline-2-carboxamide]",≤ 50 nM,≤ 100 nM,≤ 10 nM,≤ 10 nM
"COc1cc(F)c(-c2cnc3ccc(C(=O)Nc4cnccc4N4C[C@H](C)C[C@H](N)C4)nc3c2)c(F)c1 [Example 4, N-{4-[(3S,5R)-3-Amino-5-methylpiperidin-1-yl]pyridin-3-yl}-7-(2,6-difluoro-4-methoxyphenyl)-1,5-naphthyridine-2-carboxamide]",≤ 50 nM,≤ 100 nM,≤ 10 nM,≤ 10 nM
"C[C@H]1CN(c2ccncc2NC(=O)c2ccc3ccc(-c4cccnc4)cc3n2)C[C@@H](N)[C@@H]1O [Example 47, N-(4-((3R,4R,5S)-3-Amino-4-hydroxy-5-methylpiperidin-1-yl)pyridin-3-yl)-7-(pyridin-3-yl)quinoline-2-carboxamide]",≤ 50 nM,≤ 100 nM,≤ 10 nM,≤ 10 nM
"CCn1cc(-c2cnc3ccc(C(=O)Nc4cnccc4N4C[C@@H](N)[C@H](O)[C@@H](C5CC5)C4)nc3c2)cn1 [Example 38, N-{4-[(3R,4R,5S)-3-Amino-5-cyclopropyl-4-hydroxypiperidin-1-yl]pyridin-3-yl}-7-(1-ethyl-1H-pyrazol-4-yl)-1,5-naphthyridine-2-carboxamide]",≤ 50 nM,≤ 100 nM,≤ 10 nM,≤ 10 nM
